According to US9150638B2, “Factor XII inhibitors for treating interstitial lung disease” (Justus-Liebig-Universität Giessen, priority 2010, dated 2015):

B1: FXIIa: activated factor XII (American Diagnostica) used to stimulate fibroblasts (protein)
chain: IPPWEAPKEHKYKAEEHTVVLTVTGEPCHFPFQYHRQLYHKCTHKGRPGPQPWCATTPNFDQDQRWGYCLEPKKVKDHCSKHSPCQKGGTCVNMPSGPHCLCPQHLTGNHCQKEKCFEPQLLRFFHKNEIWYRTEQAAVARCQCKGPDAHCQRLASQACRTNPCLHGGRCLEVEGHRLCHCPVGYTGAFCDVDTKASCYDGRGLSYRGLARTTLSGAPCQPWASEATYRNVTAEQARNWGLGGHAFCRNPDNDIRPWCFVLNRDRLSWEYCDLAQCQTPTQAAPPTPVSPRLHVPLMPAQPAPPKPQPTTRTPPQSQTPGALPAKREQPPSLTRNGPLSCGQRLRKSLSSMTRVVGGLVALRGAHPYIAALYWGHSFCAGSLIAPCWVLTAAHCLQDRPAPEDLTVVLGQERRNHSCEPCQTLAVRSYRLHEAFSPVSYQHDLALLRLQEDADGSCALLSPYVQPVCLPSGAARPSETTLCQVAGWGHQFEGAEEYASFLQEAQVPFLSLERCSAPDVHGSSILPGMLCAGFLEGGTDACQGDSGGPLVCEDQAAERRLTLQGIISWGSGCGDRNKPGVYTDVAYYLAWIREHTVS

Experiments:
[1] = system: murine lung fibroblasts; assay: Proliferation assay, [3H]-thymidine incorporation after FXIIa stimulation; format: cell-based; details: for FXIIa-induced proliferation ([3H]-thymidine incorporation): added or preincubated 1-2 hours before FXIIa, 10.0 μM PD98059, 5 μM SP600125, 0.7 μM Wortmannin, 3 μM SB203580, blocking antibodies 5 μg/ml
Method: Human lung specimens of the pulmonary parenchyma and mouse lungs were chopped into <1 mm^3 pieces. The minced pieces were washed twice with PBS and then plated in 100-mm dishes (Greiner-bio-one, Frickenhausen, Germany). The specimens were cultured with Dulbecco's modified Eagle's medium (DMEM; Invitrogen, Karlsruhe, Germany) supplemented with 10% fetal calf serum (FCS; HyClone, South Logan, UT), and 1% penicillin/streptomycin (Invitrogen) in humidified atmosphere of 5% CO2 at 37° C. Purity of isolated fibroblasts was verified by positive staining for vimentin, fibronectin and collagen IV. All experiments were carried out with lung fibroblasts from passages 3-4. The mouse NIH3T3 fibroblasts were cultured in DMEM supplemented with 10% FCS, and 1% penicillin/streptomycin in humidified atmosphere of 5% CO2 at 37° C. The primary murine lung fibroblasts were seeded in 48-well plates and starved in serum free DMEM (Dulbecco's Modified Eagle's Medium) for 24 hours prior to FXIIa (American Diagnostica, Stamford, Conn.) stimulation. In some experiments cells were preincubated with 5 μg/ml anti-uPAR (R&D Systems, Wiesbaden, Germany), anti-β1-integrin or anti-α5-integrin (both from Millipore, Billerica, Mass.) blocking antibodies 1-2 hours before exposure to FXIIa. In addition in some experiment 10.0 μM PD98059, 5 μM SP600125, 0.7 μM Wortmannin, 3 μM SB203580 (all from Calbiochem, Darmstadt, Germany) were added to the cell culture medium 1-2 hours prior to the addition of FXIIa. Cells were treated with 3-9 μg/ml FXIIa alone or in the presence of its specific inhibitors: Corn Trypsin Inhibitor ([…]-chloromethylketone (PCK, Bachem, Weil am Rhein, Germany) or uPAR synthetic peptides. After 24-36 hours the cells were exposed to [3H]Thymidine (0.2 μCi per well) for 6-12 hours, rinsed three times with PBS and solubilized with 0.2 ml 0.5M sodium hydroxide. 0.1 ml of the solubilized material was quantified by liquid scintillation counting (TRI-CARB® 1500, A Canbera Company, Meriden, Conn.). [^3H]Thymidine incorporation was expressed as absolute radioactivity (counts per minute per well).

[2] = system: FXII; assay: TGF-β1-induced FXII expression in HLF; format: cell-based, human; details: for FXII expression in response to TGF-β1 (Western blot): HLF treated with inhibitor 1 h prior to TGF-β1 for 48 h
Method: Human lung specimens of the pulmonary parenchyma and mouse lungs were chopped into <1 mm^3 pieces. The minced pieces were washed twice with PBS and then plated in 100-mm dishes (Greiner-bio-one, Frickenhausen, Germany). The specimens were cultured with Dulbecco's modified Eagle's medium (DMEM; Invitrogen, Karlsruhe, Germany) supplemented with 10% fetal calf serum (FCS; HyClone, South Logan, UT), and 1% penicillin/streptomycin (Invitrogen) in humidified atmosphere of 5% CO2 at 37° C. Purity of isolated fibroblasts was verified by positive staining for vimentin, fibronectin and collagen IV. All experiments were carried out with lung fibroblasts from passages 3-4. The mouse NIH3T3 fibroblasts were cultured in DMEM supplemented with 10% FCS, and 1% penicillin/streptomycin in humidified atmosphere of 5% CO2 at 37° C.
(§1) Proteins separated on SDS polyacrylamide gel were transferred to a PVDF membrane (Amersham Biosciences, Freiburg, Germany) using wet transfer technique in transfer buffer (25 mM Tris, 192 mM Glycine, 20% (v/v) Methanol) for 1 h at 100V. After blocking with 5% non-fat dry milk in tris-buffered saline (TBS; 25 mM Tris-Cl, 150 mM NaCl, pH 7.5) containing 0.1% (v/v) Tween 20 (TBS-T), the membranes were incubated at 4° C. overnight with appropriate primary antibody diluted in 1% BSA in TBS-T. After 1 h incubation with peroxidase-labelled secondary antibody (all from Dako, Gostrup, Denmark) proteins were detected using ECL Plus Kit (Amersham Biosciences, Freiburg, Germany). To determine the amounts of protein loaded on the gel, blots were in 1 hour (stripping buffer: 100 mM Glycine, 1% HCl) and reprobed using an anti-β-actin or appropriate anti-pan antibody.
Pre-designed, commercially available siRNA sequences directed against human Smad 3 (Dharmacon, Chicago, Ill.), human JNK1 (Abnova, Heidelberg, Germany), and an universal negative-control siRNA (Ambion, Austin, Tex.) were employed. Cells were treated with siRNA (250 nM each) using the X-treme Gene siRNA Transfection Reagent (Roche). The siRNA-mediated downregulation of the target genes was assessed 72 h after transfection by Western blotting.

[3] = system: cyclin D1; assay: Immunoblot of cyclin D1 expression after FXIIa stimulation; format: cell-based, murine; details: 6 hours after 6 μg/ml FXIIa stimulation
Method: as §1

Molecule	FXIIa-induced proliferation ([3H]-thymidine incorporation) [1]	FXII expression in response to TGF-β1 (Western blot) [2]	synthesis of FXII in HLF ([2]; exposure to 10 ng/ml TGF-β1)	DNA synthesis ([3H]-thymidine incorporation) after FXIIa treatment ([1]; increasing concentration of FXIIa)	cyclin D expression [3]
COc1cccc(-c2cc(=O)c3ccccc3o2)c1N [PD98059, reference compound]	reduction of murine lung fibroblasts proliferation	No change in FXII expression			
C[S+]([O-])c1ccc(-c2nc(-c3ccncc3)c(-c3ccc(F)cc3)[nH]2)cc1 (stereo not shown) [SB203580, reference compound]	No change in DNA sythesis	No change in FXII expression			
TGF-β1: cytokine (R&D Systems) used at 10 ng/ml to stimulate cells			stimulated the synthesis of FXII in a time dependent manner		
B1				dose-dependent increase	increased
